# Data taken from patent US12377100B2 (GILEAD SCIENCES, INC., priority 2015, dated 2025).
# Tests used:
# Assay type in all cases: cell-based
# Conditions in all cases: human PBMCs, 24 hours incubation
# IL12p40 = assay: PBMC cytokine profiling assay, IL12-p40 induction
# Method: (§1) Certain compounds disclosed herein we tested according to the procedure described below. Additionally, certain reference compounds were prepared and tested along with the compounds of the present disclosure.
# (§2) Compounds were dissolved and stored in DMSO (Sigma-Aldrich, St. Louis, MO) at 10 mM concentration.
# (§3) Cryopreserved human PBMCs isolated from healthy donors were purchased from StemCell Technologies (Vancouver, Canada). Cell culture medium used was RPMI with L-Glutamine (Mediatech, Manassas, VA) supplemented with 10% fetal bovine serum (Hyclone, GE Healthcare, Logan, UT) and Penicillin-Streptomycin (Mediatech). Human TNFα, IL12p40, and IFNα2a 384-well Assay capture plates, standards, buffers and processing reagents were obtained from MesoScale Discovery Technologies (MSD; Rockville, MD).
# (§4) Cryopreserved human PBMCs (1×10e8 cells/ml) were thawed at 37° C. and resuspended in 25 mL warm cell culture medium. The cells were pelleted at 200×g (Beckman Avanti J-E) for 5 min and resuspended in 20 mL of fresh culture media. Cells were counted using a Cellometer (Nexcelcom Bioscience), adjusted to 2×10e6 cells, and incubated for 2 hours in an incubator set at 37° C., 5% CO2 to recover from cryopreservation. Compounds were serially diluted in DMSO at half-log steps to generate a 10-point dose range. Using a Bravo pipette equipped with a 384 well head (Agilent), 0.4 μL of compound was transferred to each well of a 384 well black, clear bottom plate (Greiner Bio-One, Germany) containing 30 μL of cell culture medium. Recovered PBMCs were then dispensed into the assay plate at 50 μL per well (100k cells/well) using the MicroFlow multichannel dispenser (Biotek). Final DMSO concentration was 0.5%. DMSO was used as the negative control. The plates were incubated for 24 hours at 37° C. PBMCs in the assay plate were pelleted by centrifugation (Beckman Avanti J-E) at 200×g for 5 min.
# (§5) Using a Biomek FX 384 well pipetting station (Beckman), conditioned culture medium (CCM) from the assay plate was transferred to MSD capture plates customized for each cytokine. For IFNα and IL12-p40 detection, 25 μL and 20 μL of CCM were added directly to each capture plate, respectively. For TNFα detection, CCM was diluted 1:9 in fresh culture medium, and 20 μL of diluted CCM was used. Serially diluted calibration standards for each cytokine were used to generate standard curves and establish assay linearity. The plates were sealed and incubated overnight at 4° C. in a plate shaker (Titer Plate) set at 200 rpm. On the following day, antibodies specific for each cytokine were diluted 1:50 in MSD Diluent 100 antibody dilution buffer. Diluted antibodies were added to corresponding capture plates at 10 μL/well, and incubated at RT for 1-2 hrs in the shaker. The plates were washed with PBST buffer (3×, 60 μl/well) using a Biotek Multiflow plate washer. MSD Read Buffer diluted to 2× in deionized water and 35 μL/well was added via Biomek FX instrument. The plates were read immediately in a MSD6000 reader. Data were normalized to positive and negative controls in each assay plate. AC50 values represent compound concentrations at half-maximal effect based on normalized percent activation and calculated by non-linear regression using Pipeline Pilot software (Accelrys, San Diego, CA).
# IFNα = assay: PBMC cytokine profiling assay, IFNα induction
# Method: as §1, §2, §3, §4, §5
# TNFα = assay: PBMC cytokine profiling assay, TNFα induction
# Method: as §1, §2, §3, §4, §5
SMILES,"AC50 (IL12p40; Homo sapiens, PBMC, 24 h) [µM]","AC50 (IFNα; Homo sapiens, PBMC, 24 h) [µM]","AC50 (TNFα; Homo sapiens, PBMC, 24 h) [µM]",also measured
"Nc1nc(N[C@@H](CO)CCCC(F)(F)F)c2ncccc2n1 [Example 99, (R)-2-((2-aminopyrido[3,2-d]pyrimidin-4-yl)amino)-6,6,6-trifluorohexan-1-ol]",3.6,> 50,3.4,
"CC(C)CC[C@H](CO)Nc1nc(N)nc2cccnc12 [Example 76, (R)-2-((2-aminopyrido[3,2-d]pyrimidin-4-yl)amino)-5-methylhexan-1-ol]",31.8,36.9,36.9,
"CCCC[C@](C)(CNS(C)(=O)=O)Nc1nc(N)nc2cccnc12 [Example 53, (R)—N-(2-((2-aminopyrido[3,2-d]pyrimidin-4-yl)amino)-2-methylhexyl)methanesulfonamide]",0.28,3.9,0.26,
"CCCC[C@H](CNS(C)(=O)=O)Nc1nc(N)nc2cccnc12 [Example 52, (R)—N-(2-((2-aminopyrido[3,2-d]pyrimidin-4-yl)amino)hexyl)methanesulfonamide]",3.6,> 50,3.2,
"Nc1nc(N[C@H](CO)CC2CC2)c2ncccc2n1 [Example 4B, (S)-2-((2-aminopyrido[3,2-d]pyrimidin-4-yl)amino)-3-cyclopropylpropan-1-ol]",5.4,5.9,9.1,
"C=CCC[C@](C)(CO)Nc1nc(N)nc2cccnc12 [Example 83, (R)-2-((2-aminopyrido[3,2-d]pyrimidin-4-yl)amino)-2-methylhex-5-en-1-ol]",1.8,43.1,1.7,
"CCCC[C@H](CCO)Nc1nc(N)nc2cccnc12 [Example 100, (R)-3-((2-aminopyrido[3,2-d]pyrimidin-4-yl)amino)heptan-1-ol]",3.5,4.6,3.8,
"CCCC[C@H](CO)Nc1nc(N)nc2cc(O)cnc12 [Example 68, (R)-2-amino-4-((1-hydroxyhexan-2-yl)amino)pyrido[3,2-d]pyrimidin-7-ol]",14.2,> 50,11.1,
"CCC[C@@H](CO)Nc1nc(N)nc2cc(CC)cnc12 [Example 21, (S)-2-((2-amino-7-ethylpyrido[3,2-d]pyrimidin-4-yl)amino)pentan-1-ol]",2.3,4.8,3.1,
"CCCC[C@](C)(CO)Nc1nc(N)nc2cc(N)cnc12 [Example 115, (R)-2-((2,7-diaminopyrido[3,2-d]pyrimidin-4-yl)amino)-2-methylhexan-1-ol]",0.027,9,0.024,
"CCCCC(Nc1nc(N)nc2cccnc12)C(C)O (stereo not drawn) [Example 104, 3-((2-aminopyrido[3,2-d]pyrimidin-4-yl)amino)heptan-2-ol]",,,,AC50 (IL12p40): 1.9 µM; AC50 (IFNα): 4.2 µM; AC50 (TNFα): 2.1 µM
"CC(F)CC[C@H](CO)Nc1nc(N)nc2cccnc12 (stereo partly drawn) [Example 73, (2R)-2-((2-aminopyrido[3,2-d]pyrimidin-4-yl)amino)-5-fluorohexan-1-ol]",1.3,> 50,1.3,
"CCC[C@](C)(CO)Nc1nc(N)nc2cccnc12 [Example 80, (R)-2-((2-aminopyrido[3,2-d]pyrimidin-4-yl)amino)-2-methylpentan-1-ol]",2.4,> 50,2.7,
"CCC[C@@H](CO)Nc1nc(N)nc2ccc(C)nc12 [Example 33, (S)-2-((2-amino-6-methylpyrido[3,2-d]pyrimidin-4-yl)amino)pentan-1-ol]",0.85,5.9,0.92,
"CCCCC[C@](C)(CO)Nc1nc(N)nc2cc(F)cnc12 [Example 111, (R)-2-((2-amino-7-fluoropyrido[3,2-d]pyrimidin-4-yl)amino)-2-methylheptan-1-ol]",0.47,,0.61,AC50 (IFNα): 19.8 µM
"CCCC[C@@H](Nc1nc(N)nc2cccnc12)C(CF)NC(C)=O (stereo partly drawn) [Example 91, N-((3R)-3-((2-aminopyrido[3,2-d]pyrimidin-4-yl)amino)-1-fluoroheptan-2-yl)acetamide]",1.9,> 50,2,

SMILES,"AC50 (IL12p40; Homo sapiens, PBMC, 24 h) [µM]","AC50 (IFNα; Homo sapiens, PBMC, 24 h) [µM]","AC50 (TNFα; Homo sapiens, PBMC, 24 h) [µM]",also measured
"CCC[C@@H](CO)Nc1nc(N)nc2cc(OC)cnc12 [Example 42B, (S)-2-((2-amino-7-methoxypyrido[3,2-d]pyrimidin-4-yl)amino)pentan-1-ol]",0.9,3.6,1.1,
"CCCCNc1nc(N)nc2cc(Cl)cnc12 [Example 41, N^4-butyl-7-chloropyrido[3,2-d]pyrimidine-2,4-diamine]",9.1,13,11,
"Nc1nc(N[C@@H](CO)CCCCF)c2ncccc2n1 [Example 74, (R)-2-((2-aminopyrido[3,2-d]pyrimidin-4-yl)amino)-6-fluorohexan-1-ol]",9.6,> 50,9.1,
"CCCC(C)Nc1nc(N)nc2cccnc12 (stereo not drawn) [Example 2B, N^4-(pentan-2-yl)pyrido[3,2-d]pyrimidine-2,4-diamine]",2.8,4.3,5.4,
"CCCCCNc1nc(N)nc2cccnc12 [Example 11, N^4-pentylpyrido[3,2-d]pyrimidine-2,4-diamine]",6,6.9,10.1,
"Nc1nc(NCCCO)c2ncccc2n1 [Example 13, 3-((2-aminopyrido[3,2-d]pyrimidin-4-yl)amino)propan-1-ol]",> 50,> 50,> 50,
"CCCCNc1nc(N)nc2cccnc12 [Example 1B, N^4-butylpyrido[3,2-d]pyrimidine-2,4-diamine]",2,2.7,3.9,
"CCC[C@@H](CO)Nc1nc(N)nc2cccnc12 [Example 27C, (S)-2-((2-amino-[3,2-d]pyrimidin-4-yl)amino)pentan-1-ol]",0.42,2,0.52,
"CCC[C@H](CO)Nc1nc(N)nc2ccc(C)nc12 [Example 38C, (R)-2-((2-amino-6-methylpyrido[3,2-d]pyrimidin-4-yl)amino)pentan-1-ol]",> 50,> 50,> 50,
"C=CC[C@H](CO)Nc1nc(N)nc2cccnc12 [Example 108, (R)-2-((2-aminopyrido[3,2-d]pyrimidin-4-yl)amino)pent-4-en-1-ol]",22,> 50,38.7,
"C[C@@H](CN)Nc1nc(N)nc2cccnc12 [Example 49, (S)—N^4-(1-aminopropan-2-yl)pyrido[3,2-d]pyrimidine-2,4-diamine]",,,,AC50 (IL12p40; PBMC): 18.1 µM; AC50 (IFNα; PBMC): 41.6 µM; AC50 (TNFα; PBMC): 22.4 µM
"CCCCNc1nc(N)nc2ccc(C(F)(F)F)nc12 [Example 32, N^4-butyl-6-(trifluoromethyl)pyrido[3,2-d]pyrimidine-2,4-diamine]",> 50,> 50,> 50,
"C=Cc1cnc2c(N[C@@H](CO)CCCC)nc(N)nc2c1 [Example 70, (R)-2-((2-amino-7-vinylpyrido[3,2-d]pyrimidin-4-yl)amino)hexan-1-ol]",2.7,> 50,3.3,
CC(C)(O)CC[C@H](CO)Nc1nc(N)nc2cccnc12 [Example 110],32.6,32.6,32.6,
"CCCC[C@@H](CO)Nc1nc(N)nc2cccnc12 [Example 14, (S)-2-((2-aminopyrido[3,2-d]pyrimidin-4-yl)amino)hexan-1-ol]",0.94,1.6,1.1,
"CCC[C@H](Nc1nc(N)nc2cccnc12)C(=O)NCC(C)(C)O [Example 35, (S)-2-((2-aminopyrido[3,2-d]pyrimidin-4-yl)amino)-N-(2-hydroxy-2-methylpropyl)pentanamide]",22.6,> 50,39.4,
